# US6818663B2, “Diaminothiazoles” (Hoffmann-La Roches, priority 2002, dated 2004)
# What was measured:
# Format in all cases: biochemical
# human cyclin D1-CDK4 = human cyclin D1-CDK4 (Homo sapiens, UniProt P11802); assay: FlashPlate kinase assay, cyclin D1-CDK4, Rb substrate; settings: recombinant cyclin D1-CDK4, Rb phosphorylation, 1 μM ATP
# Procedure: (§1) To determine inhibition of Cdk4, Cdk2 and Cdk1 activity, kinase assays were conducted using FlashPlate™ assays (NEN™-Life Science Products). FlashPlate assays were performed using recombinant human cyclin B-CDK1, human cyclin E-CDK2 or human cyclin D1-CDK4 complexes. GST-cyclinE (GST-cycE), CDK2, GST-cyclinB (GST-cycB), CDK1, GST-CDK4 and cyclin D1 (cycD1) cDNA clones in baculovirus vectors were provided by Dr. W. Harper at the Baylor College of Medicine, Houston, Tex. Proteins were co-expressed in High Five™ insect cells and the complex was purified on glutathione Sepharose resin (Pharmacia, Piscataway, N.J.) as previously described (Harper, J. W. et al. Cell 1993, 75, 805-816). A 6×-Histidine tagged truncated form of retinoblastoma (Rb) protein (amino acid 386-928) was used as the substrate for the cycD1-CDK4, cycB-CDK1 and the cycE-CDK2 assays (the expression plasmid was provided by Dr. Veronica Sullivan, Department of Molecular Virology, Roche Research Centre, Welwyn Garden City, United Kingdom). The Rb protein is a natural substrate for phosphorylation by CDK4, CDK2 and CDK1 (see Herwig and Strauss Eur. J. Biochem. Vol. 246 (1997) pp. 581-601 and the references cited therein).
# (§2) The expression of the 62 Kd protein was under the control of an IPTG inducible promoter in an M15 E. coli strain. Cells were lysed by sonication and purification was carried out by binding lysates at pH 8.0 to a Ni-chelated agarose column pretreated with 1 mM imidazole. The resin was then washed several times with incrementally decreasing pH buffers to pH 6.0, and eluted with 500 mM imidazole. Eluted protein was dialysed against 20 mM HEPES pH 7.5, 30% glycerol, 200 mM NaCl, and 1 mM DTT. Purified Rb fusion protein stocks were quantitated for protein concentration, aliquoted, and stored at −70° C.
# (§3) For all three kinase assays reported herein, 96-well FlashPlates were coated with Rb protein at 10 μg/ml, using 100 μl per well. Plates were incubated at 4° C. overnight or at room temperature for 3 hours on a shaker. To control for nonspecific phosphorylation, one row of wells was coated with 100 μl/well coating buffer (20 mM HEPES, 0.2 M NaCl). Plates were then washed twice with wash buffer (0.01% Tween 20 in phosphate-buffered saline). Compounds to be tested (“test compounds”) were added to the wells at 5×final concentration. Reactions were initiated by immediate addition of 40 μl reaction mix (25 mM HEPES, 20 mM MgCl2, 0.002% Tween 20, 2 mM DTT, 1 μM ATP, 4 nM ^33P-ATP) and a sufficient amount of enzyme to give counts that were at least 10-fold above background. Plates were incubated at room temperature on a shaker for 30 minutes. Plates were washed four times with the wash buffer, sealed, and counted on the TopCount scintillation counter (Packard Instrument Co., Downers Grove, Ill.]. The percent inhibition of Rb phosphorylation, which is a measure of the inhibition of CDK activity, was determined according to the following formula: [formula]
# (§4) where “test compound” refers to the average counts per minute of the test duplicates, “nonspecific” refers to the average counts per minute when no CyclinD/Cdk4, etc., was added, and “total” refers to the average counts per minute when no compound was added. The IC50 value is the concentration of test compound that reduces by 50% the protein-kinase induced incorporation of the radiolabel under the test conditions described.
# human cyclin B-CDK1 = human cyclin B-CDK1 (Homo sapiens, UniProt P06493); assay: FlashPlate kinase assay, cyclin B-CDK1, Rb substrate; settings: recombinant cyclin B-CDK1, Rb phosphorylation, 1 μM ATP
# Sequence of human cyclin B-CDK1 (P06493 whole entry): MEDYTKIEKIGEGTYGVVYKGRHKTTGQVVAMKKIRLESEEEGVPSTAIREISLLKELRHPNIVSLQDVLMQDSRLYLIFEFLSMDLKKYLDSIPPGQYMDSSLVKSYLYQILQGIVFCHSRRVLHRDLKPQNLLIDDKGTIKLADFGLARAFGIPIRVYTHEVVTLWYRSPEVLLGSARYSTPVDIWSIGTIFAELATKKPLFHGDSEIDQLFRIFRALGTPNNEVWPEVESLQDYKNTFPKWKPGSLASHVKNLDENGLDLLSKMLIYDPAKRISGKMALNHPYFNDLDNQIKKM
# Sequence of human cyclin B-CDK1 (P14635 whole entry partner): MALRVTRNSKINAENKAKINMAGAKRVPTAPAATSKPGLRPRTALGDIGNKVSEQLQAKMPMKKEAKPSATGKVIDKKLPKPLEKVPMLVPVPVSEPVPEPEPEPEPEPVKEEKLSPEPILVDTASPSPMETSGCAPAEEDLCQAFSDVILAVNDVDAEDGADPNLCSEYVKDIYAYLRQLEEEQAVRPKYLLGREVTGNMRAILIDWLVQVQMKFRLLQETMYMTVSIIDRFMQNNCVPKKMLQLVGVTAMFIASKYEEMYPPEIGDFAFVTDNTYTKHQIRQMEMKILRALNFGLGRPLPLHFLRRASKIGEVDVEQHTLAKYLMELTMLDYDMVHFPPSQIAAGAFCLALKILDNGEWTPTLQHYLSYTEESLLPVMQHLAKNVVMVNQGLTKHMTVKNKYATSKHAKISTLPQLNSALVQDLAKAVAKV
# Procedure: as §1, §2, §3, §4
# human cyclin E-CDK2 = human cyclin E-CDK2 (Homo sapiens, UniProt P24941); assay: FlashPlate kinase assay, cyclin E-CDK2, Rb substrate; settings: recombinant cyclin E-CDK2, Rb phosphorylation, 1 μM ATP
# Procedure: as §1, §2, §3, §4
# Sequence of human cyclin D1-CDK4 (P11802 whole entry): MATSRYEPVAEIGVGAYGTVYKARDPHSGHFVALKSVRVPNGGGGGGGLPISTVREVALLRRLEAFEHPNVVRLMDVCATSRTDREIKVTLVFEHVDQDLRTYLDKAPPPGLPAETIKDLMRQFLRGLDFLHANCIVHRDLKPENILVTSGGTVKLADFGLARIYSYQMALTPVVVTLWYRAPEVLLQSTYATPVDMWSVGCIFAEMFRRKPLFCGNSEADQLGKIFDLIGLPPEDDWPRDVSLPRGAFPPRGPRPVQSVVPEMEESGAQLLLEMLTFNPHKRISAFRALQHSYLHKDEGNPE
# Sequence of human cyclin D1-CDK4 (P24385 whole entry partner): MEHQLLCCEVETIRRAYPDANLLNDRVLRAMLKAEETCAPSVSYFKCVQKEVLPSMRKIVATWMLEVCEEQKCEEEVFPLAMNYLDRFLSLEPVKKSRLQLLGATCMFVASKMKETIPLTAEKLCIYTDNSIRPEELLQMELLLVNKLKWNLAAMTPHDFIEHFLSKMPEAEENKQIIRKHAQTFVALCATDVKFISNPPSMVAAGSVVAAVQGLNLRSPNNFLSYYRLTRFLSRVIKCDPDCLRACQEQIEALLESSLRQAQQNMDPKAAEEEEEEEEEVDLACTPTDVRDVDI
IC50 (human cyclin D1-CDK4) [nM],IC50 (human cyclin B-CDK1) [nM],IC50 (human cyclin E-CDK2) [nM],Compound
38,440,1170,"Nc1nc(Nc2ccc(OC[C@@H]3CCCN3)cc2)sc1C(=O)c1cccc(F)c1 [Example 3, [4-Amino-2-[4-(pyrrolidin-2-ylmethoxy)-phenylamino]-thiazol-5-yl]-(3-fluoro-phenyl)-methanone]"
92,613,850,"CN(C)C(C)(C)COc1ccc(Nc2nc(N)c(C(=O)c3cccc(F)c3)s2)cc1 [Example 39, [4-Amino-2-[4-(2-dimethylamino-2-methyl-propoxy)-phenylamino]-thiazol-5-yl]-(3-fluoro-phenyl)-methanone]"
65,416,1140,"Nc1nc(Nc2ccc(OC3CCCNC3)cc2)sc1C(=O)c1cccc(F)c1 (stereo not drawn) [Example 46, [4-Amino-2-[4-(piperidin-3-yloxy)-phenylamino]-thiazol-5-yl]-(3-fluoro-phenyl)-methanone]"
73,196,1080,"Nc1nc(Nc2ccc(OCCN3CCOCC3)cc2)sc1C(=O)c1cccc(F)c1 [Example 47, [4-Amino-2-[4-(2-morpholin-4-yl-ethoxy)-phenylamino]-thiazol-5-yl]-(3-fluoro-phenyl)-methanone]"
85,1550,3160,"COc1ccc(C(=O)c2sc(Nc3ccc(OCCN4CCCC4)cc3)nc2N)cc1[N+](=O)[O-] [Example 48, [4-Amino-2-[4-(2-pyrrolidin-1-yl-ethoxy)-phenylamino]-thiazol-5-yl]-(4-methoxy-3-nitro-phenyl)-methanone]"
88,2390,4300,"COc1ccc(C(=O)c2sc(Nc3ccc(OCCN(C)C)cc3)nc2N)cc1[N+](=O)[O-] [Example 49, [4-Amino-2-[4-(2-dimethylamino-ethoxy)-phenylamino]-thiazol-5-yl]-(4-methoxy-3-nitro-phenyl)-methanone]"
85,610,3200,"Nc1nc(Nc2ccc(OCCN3CCOCC3)cc2)sc1C(=O)c1ccc2c(c1)OCCO2 [Example 55, [4-Amino-2-[4-(2-morpholin-4-yl-ethoxy)-phenylamino]-thiazol-5-yl]-(2,3-dihydro-benzo[1,4]dioxin-6-yl)-methanone]"
29,155,3020,"Nc1nc(Nc2ccc(OCCN3CCOCC3)cc2)sc1C(=O)c1ccc2c(c1)OCO2 [Example 56, [4-Amino-2-[4-(2-morpholin-4-yl-ethoxy)-phenylamino]-thiazol-5-yl]-benzo[1,3]dioxol-5-yl-methanone]"
63,434,5600,"CN(C)CCOc1ccc(Nc2nc(N)c(C(=O)c3ccc4c(c3)OCO4)s2)cc1 [Example 59, [4-Amino-2-[4-(2-dimethylamino-ethoxy)-phenylamino]-thiazol-5-yl]-benzo[1,3]dioxol-5-yl-methanone]"
79,847,1700,"CN(C)CCOc1ccc(Nc2nc(N)c(C(=O)c3cccc(C#N)c3)s2)cc1 [Example 60, 3-[4-Amino-2-[4-(2-dimethylamino-ethoxy)-phenylamino]-thiazole-5-carbonyl]-benzonitrile]"
101,1170,5990,"Cc1ccc(C(=O)c2sc(Nc3ccc(OCCN(C)C)cc3)nc2N)cc1F [Example 73, [4-Amino-2-[4-(2-dimethylamino-ethoxy)-phenylamino]-thiazol-5-yl]-(3-fluoro-4-methyl-phenyl)-methanone]"
92,869,5130,"Cc1ccc(C(=O)c2sc(Nc3ccc(OC[C@@H](C)N(C)C)cc3)nc2N)cc1F [Example 74, (R)-[4-Amino-2-[4-(2-dimethylamino-propoxy)-phenylamino]-thiazol-5-yl]-(3-fluoro-4-methyl-phenyl)-methanone]"
97,578,4240,"Cc1ccc(C(=O)c2sc(Nc3ccc(OCC(C)(C)N(C)C)cc3)nc2N)cc1F [Example 75, [4-Amino-2-[4-(2-dimethylamino-2-methyl-propoxy)-phenylamino]-thiazol-5-yl]-(3-fluoro-4-methyl-phenyl)-methanone]"
71,1020,1500,"CCN1CCCC(Oc2ccc(Nc3nc(N)c(C(=O)c4ccc(O)c(F)c4)s3)cc2)C1 (stereo not drawn) [Example 82, [4-Amino-2-[4-(1-ethyl-piperidin-3-yloxy)-phenylamino]-thiazol-5-yl]-(3-fluoro-4-hydroxy-phenyl)-methanone]"
97,977,1640,"CCN1CCC(Oc2ccc(Nc3nc(N)c(C(=O)c4ccc(C)c(F)c4)s3)cc2)C1 (stereo not drawn) [Example 86, [4-Amino-2-[4-(1-ethyl-pyrrolidin-3-yloxy)-phenylamino]-thiazol-5-yl]-(3-fluoro-4-methyl-phenyl)-methanone]"
74,451,957,"CCN1CCCC(Oc2ccc(Nc3nc(N)c(C(=O)c4ccc(C)c(F)c4)s3)cc2)C1 (stereo not drawn) [Example 87, [4-Amino-2-[4-(1-ethyl-piperidin-3-yloxy)-phenylamino]-thiazol-5-yl]-(3-fluoro-4-methyl-phenyl)-methanone]"
43,228,130,"CCCc1cc(C(=O)c2sc(Nc3ccc(OC4CCNC4)cc3)nc2N)ccc1O (stereo not drawn) [Example 90, [4-Amino-2-[4-(pyrrolidin-3-yloxy)-phenylamino]-thiazol-5-yl]-(4-hydroxy-3-propyl-phenyl)-methanone; Compound With Acetic Acid]"
67,471,817,"Cc1cccc(C(=O)c2sc(Nc3ccc(OC4CCNC4)cc3)nc2N)c1 (stereo not drawn) [Example 91, [4-Amino-2-[4-(pyrrolidin-3-yloxy)-phenylamino]-thiazol-5-yl]-m-tolyl-methanone; Compound With Acetic Acid]"
86,682,2040,"Cc1ccc(C(=O)c2sc(Nc3ccc(OC4CCNC4)cc3)nc2N)cc1F (stereo not drawn) [Example 94, [4-Amino-2-[4-(pyrrolidin-3-yloxy)-phenylamino]-thiazol-5-yl]-(3-fluoro-4-methyl-phenyl)-methanone; Compound With Acetic Acid]"
96,1720,3740,"COc1ccc(C(=O)c2sc(Nc3ccc(OC4CCCNC4)cc3)nc2N)cc1F (stereo not drawn) [Example 97, [4-Amino-2-[4-(piperidin-3-yloxy)-phenylamino]-thiazol-5-yl]-(3-fluoro-4-methoxy-phenyl)-methanone]"
34,523,1230,"CCc1cccc(C(=O)c2sc(Nc3ccc(OC4CCCNC4)cc3)nc2N)c1 (stereo not drawn) [Example 98, [4-Amino-2-[4-(piperidin-3-yloxy)-phenylamino]-thiazol-5-yl]-(3-ethyl-phenyl)-methanone]"
70,,,"CCN(CC)CCOc1ccc(Nc2nc(N)c(C(=O)c3ccc4c(c3)C(C)CO4)s2)cc1 (stereo not drawn) [Example 139, [4-Amino-2-[4-(2-diethylamino-ethoxy)-phenylamino]-thiazol-5-yl]-(3-methyl-2,3-dihydro-benzofuran-5-yl)-methanone]"
100,6430,,"CCN(CC)CCOc1ccc(Nc2nc(N)c(C(=O)c3ccc4c(c3)CCO4)s2)cc1 [Example 142, [4-Amino-2-[4-(2-diethylamino-ethoxy)-phenylamino]-thiazol-5-yl]-(2,3-dihydro-benzofuran-5-yl)-methanone]"
